Consider one cell line from the supplement of paper PMC10307832.

Test in all cases: relative viability (nuclei count vs DMSO), 5 days (fraction); higher = more cells survive
Compound in the assay “Selumetinib + Trametinib”: Cn1cnc2c(F)c(Nc3ccc(Br)cc3Cl)c(C(=O)NOCCO)cc21 [Selumetinib] + CC(=O)Nc1cccc(-n2c(=O)n(C3CC3)c(=O)c3c(Nc4ccc(I)cc4F)n(C)c(=O)c(C)c32)c1 [Trametinib] (partner 0.02 µM)
Summed up:
(§1)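 Relative viability divides the nuclei count in treated wells by that in vehicle wells. Lung cancer cell lines were seeded in 1536-well plates, dosed by pin tool the next day, and fixed and stained after 5 days in one step with final 0.05% Triton X-100, 1% formaldehyde and 1 ug/ml Hoechst. Dosing was a single drug or a fixed anchor-drug dose plus five library-drug doses (not always all listed) in √10 steps, and values are medians of duplicate plates imaged at 4×.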

Compound in the assay “Selumetinib + Lapatinib”: Cn1cnc2c(F)c(Nc3ccc(Br)cc3Cl)c(C(=O)NOCCO)cc21 [Selumetinib] + CS(=O)(=O)CCNCc1ccc(-c2ccc3ncnc(Nc4ccc(OCc5cccc(F)c5)c(Cl)c4)c3c2)o1 [Lapatinib] (partner 2 µM)
In a few lines: as §1

Compound in the assay “Venetoclax + Luminespib”: CC1(C)CCC(CN2CCN(c3ccc(C(=O)NS(=O)(=O)c4ccc(NCC5CCOCC5)c([N+](=O)[O-])c4)c(Oc4cnc5[nH]ccc5c4)c3)CC2)=C(c2ccc(Cl)cc2)C1 [Venetoclax] + CCNC(=O)c1noc(-c2cc(C(C)C)c(O)cc2O)c1-c1ccc(CN2CCOCC2)cc1 [Luminespib] (partner 0.01 µM)
In a few lines:
as §1

Compound in the assay “Selumetinib + Luminespib”: Cn1cnc2c(F)c(Nc3ccc(Br)cc3Cl)c(C(=O)NOCCO)cc21 [Selumetinib] + CCNC(=O)c1noc(-c2cc(C(C)C)c(O)cc2O)c1-c1ccc(CN2CCOCC2)cc1 [Luminespib] (partner 0.01 µM)
In a few lines:
as §1

On to UMC-11, for which the relative viability with Selumetinib + Trametinib (first compound 0.02 µM) was determined as 0.562; with Selumetinib + Trametinib (first compound 0.06325 µM), 0.703; with Selumetinib + Trametinib (first compound 0.2 µM), 0.879; in the assay with Selumetinib + Trametinib (first compound 0.6325 µM) it was 0.812; with Selumetinib + Lapatinib (first compound 0.02 µM), 0.954; with Selumetinib + Lapatinib (first compound 0.06325 µM) it was 0.897. The relative viability in the assay with Selumetinib + Lapatinib (first compound 0.2 µM) is 0.972; with Selumetinib + Lapatinib (first compound 0.6325 µM), 1.02; with Venetoclax + Luminespib (first compound 0.01 µM), 1.06; in the assay with Venetoclax + Luminespib (first compound 0.03162 µM) it was 0.987; with Venetoclax + Luminespib (first compound 0.1 µM), 1.04; in the assay with Venetoclax + Luminespib (first compound 0.3162 µM), 1.02. Besides, the relative viability was determined as 0.882 in the assay with Venetoclax + Luminespib (first compound 1 µM); 1.14 in the assay with Selumetinib + Luminespib (first compound 0.02 µM); 0.869 with Selumetinib + Luminespib (first compound 0.06325 µM); 1.08 in the assay with Selumetinib + Luminespib (first compound 0.2 µM); 0.967 in the assay with Selumetinib + Luminespib (first compound 0.6325 µM).
